Assay results taken from ChEMBL document CHEMBL4229379, “Synthesis and structure-activity relationship of novel bisindole amidines active against MDR Gram-positive and Gram-negative bacteria” (Eur J Med Chem, 2018).
In brackets after ≈: the same amount, converted by molar mass.

How the values were obtained:
Type in all cases: functional
[1] = tested on: Serratia marcescens; experiment: Antibacterial activity against Serratia marcescens ATCC 21074 after 18 hrs by CLSI broth microdilution method; details: ATCC 21074, 18 h
[2] = tested on: Staphylococcus aureus; experiment: Antibacterial activity against methicillin-resistant Staphylococcus aureus ATCC 33591 infected in ICR mouse assessed as mouse survival at 4 mg/kg, iv administered at 1 and 5 hrs post infection and measured on day 7 day post last dose (reference value: 0%); details: ATCC 33591, iv
[3] = tested on: Staphylococcus aureus; experiment: Antibacterial activity against methicillin-resistant Staphylococcus aureus ATCC 33591 infected in ICR mouse assessed as mouse survival at 2 mg/kg, iv administered at 1 and 5 hrs post infection and measured on day 7 day post last dose (reference value: 0%); details: ATCC 33591, iv
[4] = tested on: Klebsiella pneumoniae; experiment: Antibacterial activity against extended-spectrum beta-lactamase harboring Klebsiella pneumoniae 12-8 after 18 hrs by CLSI broth microdilution method; details: 12-8, 18 h
[5] = tested on: Staphylococcus epidermidis; experiment: Antibacterial activity against methicillin-resistant Staphylococcus epidermidis 12-8 after 18 hrs by CLSI broth microdilution method; details: 12-8, 18 h
[6] = tested on: Pseudomonas aeruginosa; experiment: Antibacterial activity against Pseudomonas aeruginosa PAO1 after 18 hrs by CLSI broth microdilution method; details: PAO1, 18 h
[7] = tested on: Staphylococcus aureus; experiment: Antibacterial activity against methicillin-sensitive Staphylococcus aureus 12-28 after 18 hrs by CLSI broth microdilution method; details: 12-28, 18 h
[8] = tested on: Klebsiella pneumoniae; experiment: Antibacterial activity against carbapenem-resistant Klebsiella pneumoniae 12-12 after 18 hrs by CLSI broth microdilution method; details: 12-12, 18 h
[9] = tested on: Klebsiella aerogenes; experiment: Antibacterial activity against Enterobacter aerogenes ATCC 13048 after 18 hrs by CLSI broth microdilution method; details: ATCC 13048, 18 h
[10] = tested on: Acinetobacter calcoaceticus; experiment: Antibacterial activity against new delhi metallo-beta-lactamase-1 harboring Acinetobacter calcoaceticus 13-1 after 18 hrs by CLSI broth microdilution method; details: 13-1, 18 h
[11] = tested on: Staphylococcus aureus; experiment: Antibacterial activity against methicillin-sensitive Staphylococcus aureus ATCC 29213 after 18 hrs by CLSI broth microdilution method; details: ATCC 29213, 18 h
[12] = tested on: Enterococcus faecalis; experiment: Antibacterial activity against vancomycin-sensitive Enterococcus faecalis 12-5 after 18 hrs by CLSI broth microdilution method; details: 12-5, 18 h
[13] = tested on: Staphylococcus aureus; experiment: Antibacterial activity against methicillin-sensitive Staphylococcus aureus 15 after 18 hrs by CLSI broth microdilution method; details: Staphylococcus aureus, 15, 18 h
[14] = tested on: Proteus vulgaris; experiment: Antibacterial activity against Proteus vulgaris ATCC 29905 after 18 hrs by CLSI broth microdilution method; details: ATCC 29905, 18 h

## CN(C)C(=N)c1ccc2cc(-c3ccc(-c4cc5ccc(C(=N)N(C)C)cc5[nH]4)cc3)[nH]c2c1
[1]
  MIC: 16 µg/mL (≈ 35.7 µM)
[2]
  survival at 4 mg/kg: 90%
[3]
  survival at 2 mg/kg: 20%
[4]
  MIC: 4 µg/mL (≈ 8.92 µM)
[5]
  MIC: 0.25 µg/mL (≈ 0.557 µM)
[6]
  MIC: 64 µg/mL (≈ 143 µM)
[7]
  MIC: 0.25 µg/mL (≈ 0.557 µM)
[8]
  MIC: 16 µg/mL (≈ 35.7 µM)
[9]
  MIC: 2 µg/mL (≈ 4.46 µM)
[10]
  MIC: 4 µg/mL (≈ 8.92 µM)
[11]
  MIC: 0.25 µg/mL (≈ 0.557 µM)
[12]
  MIC: 2 µg/mL (≈ 4.46 µM)
[13]
  MIC: 0.25 µg/mL (≈ 0.557 µM)
[14]
  MIC: 4 µg/mL (≈ 8.92 µM)
